Key:
Assay type in all cases: functional, cell-based
Details in all cases: Homo sapiens
LNCaP [1] = experiment: The compound was evaluated for cytotoxicity by assessing 3H thymidine uptake in LNCaP cell line
HEK293 [2] = experiment: The compound was evaluated for cytotoxicity by assessing 3H thymidine uptake in HEK293 cell line
MCF7 = experiment: The compound was evaluated for cytotoxicity by assessing 3H thymidine uptake in MCF-7 cell line
LNCaP [3] = experiment: The compound was evaluated for cytotoxicity by assessing 3H thymidine uptake in LNCaP cell line in presence of PSA (1 ug)
HEK293 [4] = experiment: The compound was evaluated for cytotoxicity by assessing 3H thymidine uptake in HEK293 cell line in presence of PSA (1 ug)

CC(C)(C)OC(=O)N[C@@H](Cc1ccc(O)cc1)C(=O)Nc1ccc(COC(=O)N(CCO)CCO)cc1
IC50 (LNCaP [1]): > 500 µM
IC50 (HEK293 [2]): > 600 µM
IC50 (MCF7): > 900 µM

N[C@@H](Cc1ccc(O)cc1)C(=O)Nc1ccc(COC(=O)N(CCCl)CCCl)cc1
IC50 (LNCaP [3]): 34 µM
IC50 (LNCaP [1]): 33 µM
IC50 (HEK293 [2]): 176 µM
IC50 (HEK293 [4]): 173 µM
IC50 (MCF7): > 900 µM

From ChEMBL document CHEMBL1133295, “Towards enzyme activated antiprostatic agents” (Bioorg Med Chem Lett, 2000)
